Experimental data as given in the NIST ThermoML archive (doi:10.1016/j.jct.2018.07.020).
Values joined by “and” are separate entries in the source; they are usually repeats but may differ in a detail not shown here. Equal entries are not always repeated. Numbers after ± are expanded uncertainties.

Columns and labels:
[1] = for vapor or sublimation pressure: Transpiration method; for Normal melting temperature: DTA
[2] = Molar enthalpy of transition or fusion; settings: Crystal; DSC
[3] = Boiling temperature at pressure P; settings: Liquid, Distillation

c1ccc2[nH]ncc2c1 [1,2-diazaindene]
[1], Crystal
Settings | vapor or sublimation pressure
323.3 K | 0.00069 ± 5e-05 kPa
326.3 K | 0.00098 ± 7e-05 kPa
330.3 K | 0.00152 ± 0.0001 kPa
331.3 K | 0.00161 ± 0.00012 kPa
336.3 K | 0.00272 ± 0.00018 kPa
338.3 K | 0.00329 ± 0.00023 kPa
341.3 K | 0.00443 ± 0.0003 kPa
343.3 K | 0.00515 ± 0.00037 kPa and 0.00524 ± 0.00039 kPa
345.2 K | 0.00661 ± 0.00047 kPa
346.3 K | 0.00723 ± 0.0005 kPa
348.3 K | 0.00826 ± 0.00057 kPa
350.3 K | 0.01023 ± 0.0007 kPa
353.2 K | 0.01343 ± 0.0009 kPa
356.2 K | 0.01763 ± 0.0012 kPa
358.2 K | 0.0211 ± 0.0014 kPa
361.2 K | 0.02725 ± 0.0018 kPa

Cc1cc(C)n(C)n1 [1,3,5-trimethylpyrazole]
[1]
Settings | vapor or sublimation pressure
282 K, Crystal | 0.0479 ± 0.0031 kPa
284 K, Crystal | 0.0583 ± 0.0039 kPa
287 K, Crystal | 0.0816 ± 0.0054 kPa
288.7 K, Crystal | 0.0998 ± 0.0065 kPa
291.7 K, Crystal | 0.1348 ± 0.0087 kPa
293.8 K, Crystal | 0.1707 ± 0.011 kPa
296.7 K, Crystal | 0.2266 ± 0.015 kPa
298.7 K, Crystal | 0.2751 ± 0.018 kPa and 0.2814 ± 0.018 kPa
301.7 K, Crystal | 0.376 ± 0.024 kPa
301.9 K, Crystal | 0.3776 ± 0.024 kPa
303 K, Crystal | 0.4153 ± 0.026 kPa
303.9 K, Crystal | 0.4496 ± 0.029 kPa
306.8 K, Crystal | 0.5927 ± 0.038 kPa
315.6 K, Liquid | 0.934 ± 0.058 kPa
320.8 K, Liquid | 1.297 ± 0.081 kPa
325.7 K, Liquid | 1.793 ± 0.11 kPa
326.4 K, Liquid | 1.878 ± 0.12 kPa
330.5 K, Liquid | 2.376 ± 0.15 kPa
331.4 K, Liquid | 2.585 ± 0.16 kPa
334.1 K, Liquid | 2.995 ± 0.19 kPa
336 K, Liquid | 3.202 ± 0.23 kPa
336.4 K, Liquid | 3.436 ± 0.24 kPa
338.9 K, Liquid | 3.803 ± 0.24 kPa
341.4 K, Liquid | 4.545 ± 0.28 kPa
343.4 K, Liquid | 4.993 ± 0.31 kPa
346.4 K, Liquid | 5.866 ± 0.36 kPa

Settings | Normal melting temperature [°C]
[1], Crystal | 39.4 ± 1.1

Settings | Molar enthalpy of transition or fusion [kcal/mol]
[2] | 4.21 ± 0.215

c1ccc(Cn2cccn2)cc1 [1-benzylpyrazole]
[1], Liquid
Settings | vapor or sublimation pressure
298.2 K | 0.00147 ± 0.00011 kPa
310.2 K | 0.0043 ± 0.00027 kPa
314.2 K | 0.00615 ± 0.00044 kPa
318.2 K | 0.00882 ± 0.00061 kPa
322.2 K | 0.0119 ± 0.0008 kPa
326.2 K | 0.0166 ± 0.001 kPa and 0.0168 ± 0.001 kPa
330.2 K | 0.0225 ± 0.0015 kPa
334.2 K | 0.0311 ± 0.002 kPa
338.2 K | 0.0421 ± 0.0027 kPa
342.2 K | 0.0559 ± 0.0035 kPa
346.2 K | 0.0713 ± 0.0045 kPa
350.2 K | 0.0969 ± 0.006 kPa
354.2 K | 0.1228 ± 0.0077 kPa
358.2 K | 0.159 ± 0.0099 kPa

Settings | Boiling temperature at pressure P [°C]
[3], 0.6 kPa | 109 ± 5

CCn1cccn1 [1-ethylpyrazole]
[1], Liquid
Settings | vapor or sublimation pressure
275.2 K | 0.1828 ± 0.012 kPa and 0.1776 ± 0.011 kPa
279.2 K | 0.2485 ± 0.015 kPa
280.2 K | 0.2616 ± 0.017 kPa
283.2 K | 0.3347 ± 0.021 kPa
285.2 K | 0.3759 ± 0.024 kPa
287.2 K | 0.4482 ± 0.028 kPa
290.2 K | 0.5448 ± 0.034 kPa
291.2 K | 0.5877 ± 0.037 kPa
294.2 K | 0.7128 ± 0.044 kPa
295.2 K | 0.7543 ± 0.048 kPa
298.2 K | 0.9478 ± 0.059 kPa
300.2 K | 1.073 ± 0.067 kPa
302.2 K | 1.237 ± 0.077 kPa
303.2 K | 1.3 ± 0.082 kPa
305.2 K | 1.539 ± 0.097 kPa
306.2 K | 1.63 ± 0.1 kPa
311.2 K | 2.194 ± 0.14 kPa

Settings | Boiling temperature at pressure P [°C]
[3], 7.2 kPa | 60 ± 4

Cn1cccn1 [1-methyl-1H-pyrazole]
[1], Liquid
Settings | vapor or sublimation pressure [kPa]
273.4 K | 0.3007 ± 0.019
276.4 K | 0.3722 ± 0.023
277.2 K | 0.3818 ± 0.024
278.7 K | 0.4304 ± 0.027
281.6 K | 0.5225 ± 0.033
281.8 K | 0.5148 ± 0.032
283.3 K | 0.5843 ± 0.037
284.6 K | 0.6386 ± 0.04
286.5 K | 0.7077 ± 0.044
287.8 K | 0.7821 ± 0.049
288.3 K | 0.8074 ± 0.051
290.5 K | 0.9287 ± 0.058
291.4 K | 0.9834 ± 0.062
292.5 K | 1.077 ± 0.068
294.4 K | 1.195 ± 0.075
296.5 K | 1.365 ± 0.085
297.4 K | 1.456 ± 0.09
298.8 K | 1.576 ± 0.098
302.4 K | 1.989 ± 0.12
304.7 K | 2.313 ± 0.14
306.6 K | 2.528 ± 0.16
308.2 K | 2.753 ± 0.17

c1ccc(-n2cccn2)cc1 [1-phenylpyrazole]
[1], Liquid
Settings | vapor or sublimation pressure [kPa]
294.2 K | 0.00258 ± 0.00018
295.2 K | 0.00284 ± 0.00019
297.2 K | 0.00324 ± 0.00022
303.2 K | 0.00556 ± 0.00039
309.1 K | 0.00913 ± 0.00061
315 K | 0.01461 ± 0.00096
320.9 K | 0.02221 ± 0.0014
327 K | 0.03352 ± 0.0022
332.8 K | 0.05146 ± 0.0033
338.9 K | 0.07723 ± 0.0049
344.9 K | 0.1082 ± 0.0068
350.8 K | 0.1589 ± 0.01
354.8 K | 0.2072 ± 0.013
360.8 K | 0.2918 ± 0.018

c1cn[nH]c1 [1H-pyrazole]
[1], Crystal
Settings | vapor or sublimation pressure [kPa]
308.4 K | 0.0499 ± 0.0033
310.8 K | 0.0628 ± 0.0041
313.4 K | 0.08 ± 0.0051
315.8 K | 0.1 ± 0.0064
318.2 K | 0.1258 ± 0.0082
323.3 K | 0.189 ± 0.012
328.3 K | 0.287 ± 0.018
330.9 K | 0.3495 ± 0.022
333.3 K | 0.4255 ± 0.027
335.8 K | 0.5187 ± 0.033
338.3 K | 0.6278 ± 0.039

Cc1cc(C)[nH]n1 [3,5-dimethylpyrazole]
[1], Crystal
Settings | vapor or sublimation pressure [kPa]
323.3 K | 0.0136 ± 0.001
325.9 K | 0.0179 ± 0.0013
326.3 K | 0.019 ± 0.0013
328.3 K | 0.0224 ± 0.0015
330.3 K | 0.028 ± 0.0018
333.3 K | 0.0361 ± 0.0023
333.5 K | 0.0368 ± 0.0023
336.3 K | 0.0473 ± 0.003
338.2 K | 0.0538 ± 0.0036
343.3 K | 0.0846 ± 0.0053
345.7 K | 0.1033 ± 0.0066
348.3 K | 0.1257 ± 0.0081
350.7 K | 0.1591 ± 0.01
350.8 K | 0.1585 ± 0.01
353.2 K | 0.1955 ± 0.012
354.3 K | 0.2107 ± 0.013
356.4 K | 0.2524 ± 0.016

Settings | Normal melting temperature [°C]
[1], Crystal | 109.1 ± 1.1

Settings | Molar enthalpy of transition or fusion [kcal/mol]
[2] | 3.85 ± 0.12

Cc1cc[nH]n1 [3-methylpyrazole]
[1], Liquid
Settings | vapor or sublimation pressure [kPa]
306.3 K | 0.0252 ± 0.0017
308.7 K | 0.0308 ± 0.002
311.2 K | 0.0369 ± 0.0023
313.8 K | 0.0443 ± 0.0028
316.3 K | 0.0568 ± 0.0036
318.2 K | 0.063 ± 0.004
321.2 K | 0.0821 ± 0.0053
323.8 K | 0.0978 ± 0.0062
326.2 K | 0.1165 ± 0.0073
328.8 K | 0.142 ± 0.009
333.2 K | 0.1924 ± 0.012

Cc1cn[nH]c1 [4-methylpyrazole]
[1], Liquid
Settings | vapor or sublimation pressure [kPa]
296 K | 0.0098 ± 0.0007
301 K | 0.0149 ± 0.001
305.9 K | 0.0226 ± 0.0015
310.8 K | 0.0339 ± 0.0022
315.8 K | 0.0494 ± 0.0032
320.9 K | 0.0719 ± 0.0045
325.7 K | 0.099 ± 0.0063
330.6 K | 0.1457 ± 0.0093
335.6 K | 0.2071 ± 0.013
340.6 K | 0.2879 ± 0.018
